Experimental data published in patent publication US5532258A, “H2 -receptor antagonist thiazoles” (Fujisawa Pharmaceutical Co., Ltd., priority 1991, dated 1996).

How the values were obtained:
Gastric secretion [1] = assay: Test C (Gastric secretion from lumen perfused stomach in anesthetized rats); format: in vivo, Male Sprague-Dawley rats; conditions: 1 mg/kg intravenously, histamine (3 mg/kg/hr) i.v. stimulation
Description: Test C (Gastric secretion from lumen perfused stomach in anesthetized rats):
Male Sprague-Dawley rats weighing about 250 g were used. Rats were deprived of food but allowed free access to water for 24 hours. The animals were anesthteized with 1.25 g/kg urethane intraperitoneally. The abdomen was opened and the gastric lumen was perfused with saline throughout the experiment. The perfusate was titrated continuously against 25 mM sodium hydroxide to maintain the perfusate solution at pH 7.0. Gastric secretion was stimulated by intravenous infusion with histamine (3 mg/kg/hr). After reaching plateau, test compound (1 mg/kg) was given intravenously at a volume of 2 ml/kg. Effect of drug was expressed as maximal inhibition of acid output calculated by the amount of sodium hydroxide required.

Gastric secretion [2] = assay: Test A (Gastric secretion in Heidenhain pouch dogs); format: in vivo, Beagle dogs; conditions: 3.2 mg/kg orally, tetragastrin (10 μg/kg/hr) i.v. stimulation, 3 hours
Description: Test A (Gastric secretion in Heidenhain pouch dogs):
Beagle dogs, weighing about 8-13 kg, were used for the study on gastric secretion. The animals were surgically provided with a vagally denervated Heidenhain pouch. One month or more later, the dogs were fasted overnight. Gastric secretion was stimulated by an intravenous infusion of tetragastrin (10 μg/kg/hr). Gastric juice was collected at 15 minutes intervals. After the secretion plateau had been established, test compound (3.2 mg/kg) suspended in 0.1% methyl cellulose solution was administered orally. Gastric juice was collected at 15 minutes intervals over 3 hours period. Acid concentration was determined by titrating an aliquot against 0.1N sodium hydroxide using automatic titrator (Hiranuma RAT-11 Type). Total acid output was calculated by multiplying the volume of gastric juice by acid concentration, and percentage inhibition was calculated by comparing total acid output before adminstration of test compound with that after administration of test compound.

stress ulcer = assay: Test B (Inhibition of stress ulcer); format: in vivo, male Sprague-Dawley rats; conditions: rats; 32 mg/kg orally just before stress; restraint in water bath 22° C. for 7 hours; vs control group
Description: Test B (Inhibition of stress ulcer):
Five male Sprague-Dawley rats, aged 7 weeks, were fasted but allowed free access to water for 24 hours. Animals were placed in a restraint cage and immersed to a level of the xiphoid in a water bath kept 22° C. for 7 hours. Each of the test compounds (32 mg/kg) suspended in 0.1% methylcellulose solution was administered orally just before the stress subjection. Animals were sacrificed and stomachs were removed. After fixing with 2% formalin, stomachs were opened along the greater curvature and area of ulcers was measured. Percentage inhibition was calculated by comparing the mean area of ulcers (mm^2) in the test group with that in the control group.

NC(=O)NCc1cccc(-c2csc(N=C(N)N)n2)c1 [Test Compound (a), 4-(3-Ureidomethylphenyl)-2-(diaminomethyleneamino)thiazole]
Inhibition (%), maximal inhibition of acid output (Gastric secretion [1]): 99%

CNC(N)=Nc1nc(-c2cccc(CNC(C)=O)c2)cs1 [Test Compound (b), 4-(3-Acetylaminomethylphenyl)-2-[[(amino)(methylamino)methylene]amino]thiazole]
Inhibition (%) of total acid output (Gastric secretion [2]): 88.1%

CCNC(N)=Nc1nc(-c2cccc(CNC(C)=O)c2)cs1 [Test Compound (c), 4-(3-Acetylaminomethylphenyl)-2-[[(amino)(ethylamino)methylene]amino]thiazole]
Inhibition (%) of area of ulcers (stress ulcer): 88.1%
